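Results reflect a 48-hour exposure of cells in 96-well plates to compound at five concentrations. GI50 marks 50% less growth.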 Calls of active or inactive are those of the source. Cut-off read from the data, not from the text of the source: active = GI50 up to about 1.1 µM and inactive = higher.
Columns and labels:
Test in all cases: DTP human tumour cell line panel, 48 h
A549 = system: A549
KM12 = system: KM12
OVCAR-5 = system: OVCAR-5
HCC 2998 = system: HCC 2998
OVCAR-3 = system: OVCAR-3
UACC-62 = system: UACC-62
RPMI-8226 = system: RPMI-8226
U-251 = system: U-251
SK-OV-3 = system: SK-OV-3
K562 = system: K562
SF-295 = system: SF-295
DLD-1 = system: DLD-1
SW-620 = system: SW-620
M14 = system: M14
NCI-H23 = system: NCI-H23
SNB-75 = system: SNB-75
NCI-H226 = system: NCI-H226
DU-145 = system: DU-145
BT-549 = system: BT-549
T47D = system: T47D

Measured: GI50

Cc1cccc(NC(=O)/C(=N\NC(C)(C)C)C2NC(=S)NC2=O)c1C (stereo not given)
inactive: A549 > 100 µM | KM12 > 100 µM | OVCAR-5 > 100 µM | HCC 2998 > 100 µM | OVCAR-3 > 100 µM | UACC-62 > 100 µM | RPMI-8226 > 100 µM | U-251 > 100 µM | SK-OV-3 > 100 µM | K562 > 100 µM | SF-295 > 100 µM | DLD-1 > 100 µM | SW-620 > 100 µM | M14 > 100 µM

CC1(C)CC23C(=O)N(c4ccccc4)C(Nc4ccccc4)=NC2=CC(C#N)=C(C#N)C3O1 (stereo not given)
inactive: A549 28.1 µM | NCI-H23 34.9 µM | KM12 46.6 µM | OVCAR-5 > 100 µM | HCC 2998 67.1 µM | OVCAR-3 > 100 µM | UACC-62 96.4 µM | RPMI-8226 30.4 µM | U-251 > 100 µM | K562 72.4 µM | SF-295 46.7 µM | DLD-1 56.2 µM | SW-620 37.7 µM | M14 > 100 µM | SNB-75 48.8 µM | NCI-H226 26.4 µM

CC1=NN(C(=O)Cc2ccccc2)C(=O)/C1=C/c1c(O)ccc2ccccc12
inactive: A549 > 100 µM | NCI-H23 61.7 µM | KM12 68.5 µM | OVCAR-5 35.8 µM | HCC 2998 > 100 µM | OVCAR-3 48.6 µM | RPMI-8226 33.2 µM | K562 40.6 µM | SF-295 34.1 µM | DLD-1 10 µM | SW-620 39.4 µM | M14 10 µM | SNB-75 29.6 µM | NCI-H226 27 µM

C[C@]12CCC(=O)C=C1CC[C@@H]1C2CC[C@]2(C)c3nn(-c4ccccc4)nc3CC12 (stereo not given in full)
inactive: A549 > 100 µM | NCI-H23 > 100 µM | KM12 > 100 µM | OVCAR-5 > 100 µM | HCC 2998 > 100 µM | OVCAR-3 > 100 µM | UACC-62 > 100 µM | RPMI-8226 > 100 µM | U-251 > 100 µM | SK-OV-3 > 100 µM | K562 > 100 µM | SF-295 > 100 µM | DLD-1 > 100 µM | SW-620 > 100 µM | M14 > 100 µM | SNB-75 > 100 µM | NCI-H226 > 100 µM

BrC1=CC=C2NCCCCCC/N=C3\C=CC(Br)=CC=C3NCCCCCC/N=C\2C=C1
inactive: A549 > 25.5 µM | NCI-H23 > 25.5 µM | KM12 > 25.5 µM | OVCAR-5 > 25.5 µM | HCC 2998 > 25.5 µM | OVCAR-3 > 25.5 µM | UACC-62 > 25.5 µM | RPMI-8226 > 25.5 µM | U-251 > 25.5 µM | SK-OV-3 > 25.5 µM | K562 > 25.5 µM | SF-295 > 25.5 µM | DLD-1 > 25.5 µM | SW-620 > 25.5 µM | M14 > 25.5 µM | SNB-75 > 25.5 µM | NCI-H226 > 25.5 µM

CCOc1ccc(/N=C/c2ccc3ccccc3n2)cc1
inactive: A549 > 100 µM | NCI-H23 > 100 µM | KM12 > 100 µM | OVCAR-5 > 100 µM | HCC 2998 > 100 µM | OVCAR-3 > 100 µM | UACC-62 > 100 µM | RPMI-8226 > 87.1 µM | U-251 > 100 µM | SK-OV-3 > 100 µM | K562 49.8 µM | SF-295 > 100 µM | DLD-1 > 100 µM | SW-620 > 100 µM | M14 > 100 µM | SNB-75 > 35.3 µM | NCI-H226 > 100 µM

O=C(O)C1CCc2nnc(-c3ccccc3)n21 (stereo not given)
inactive: A549 > 100 µM | KM12 > 100 µM | HCC 2998 > 100 µM | OVCAR-3 > 100 µM | UACC-62 > 100 µM | RPMI-8226 > 100 µM | U-251 > 100 µM | SK-OV-3 > 100 µM | K562 > 100 µM | DLD-1 > 100 µM | SW-620 > 100 µM | M14 > 100 µM | SNB-75 > 100 µM | NCI-H226 > 100 µM

O=S(O)CCCCSSCCCCSSCCCCS(=O)O
inactive: A549 34 µM | NCI-H23 36 µM | KM12 76 µM | OVCAR-5 > 100 µM | HCC 2998 > 100 µM | OVCAR-3 33.9 µM | UACC-62 12.1 µM | U-251 > 100 µM | SK-OV-3 > 100 µM | K562 15 µM | SF-295 30.1 µM | DLD-1 86.1 µM | SW-620 24.4 µM | M14 11.2 µM | SNB-75 6.31 µM

COC(=O)c1[nH]c(=S)[nH]c(=O)c1-c1ccc(Cl)cc1
inactive: A549 > 50 µM | NCI-H23 > 50 µM | KM12 > 50 µM | OVCAR-5 > 50 µM | HCC 2998 > 50 µM | OVCAR-3 > 50 µM | UACC-62 > 50 µM | RPMI-8226 > 50 µM | U-251 > 50 µM | SK-OV-3 > 50 µM | K562 > 50 µM | SF-295 > 50 µM | DLD-1 > 50 µM | SW-620 > 50 µM | M14 > 50 µM | SNB-75 > 50 µM | NCI-H226 > 50 µM

CCc1cccc(CC)c1NC(=O)C1=C(C)NC(C)=C(C(=O)Nc2c(CC)cccc2CC)C1c1ccc([N+](=O)[O-])cc1
inactive: A549 23 µM | NCI-H23 22.8 µM | KM12 18 µM | OVCAR-5 44.7 µM | HCC 2998 36.2 µM | OVCAR-3 32.1 µM | RPMI-8226 11.4 µM | U-251 40.5 µM | SK-OV-3 38.1 µM | K562 19.1 µM | SF-295 15.5 µM | DLD-1 21.4 µM | SW-620 17.7 µM | M14 17.5 µM | SNB-75 24.5 µM | NCI-H226 26.1 µM

N/C=N/S(=O)(=O)c1ccc(NC(=O)COC(=O)c2cccc3c(=O)c4ccccc4[nH]c23)cc1
inactive: A549 > 100 µM | NCI-H23 > 100 µM | KM12 > 100 µM | OVCAR-3 > 100 µM | UACC-62 > 100 µM | RPMI-8226 > 100 µM | U-251 > 100 µM | SK-OV-3 > 100 µM | K562 > 100 µM | SF-295 > 100 µM | DLD-1 > 100 µM | SW-620 > 100 µM | M14 67.8 µM | SNB-75 > 100 µM | NCI-H226 > 100 µM

CC(=O)Nc1ccc(/C=N\N2C(=O)c3ccccc3C2=O)cc1
inactive: A549 > 100 µM | NCI-H23 > 100 µM | KM12 > 100 µM | OVCAR-5 > 100 µM | HCC 2998 > 100 µM | OVCAR-3 > 100 µM | UACC-62 > 100 µM | RPMI-8226 > 100 µM | K562 > 100 µM | SF-295 > 100 µM | DLD-1 > 100 µM | SW-620 > 100 µM | M14 > 100 µM | SNB-75 > 100 µM | NCI-H226 > 100 µM

CCN1CC2(C)CC[C@@H](OC)C34[C@@H]2[C@H](OC(C)=O)C2(OCO[C@@]25C[C@H](OC)C2C[C@]3(O)[C@@H]5[C@H]2O)[C@H]14
inactive: A549 > 100 µM | NCI-H23 > 100 µM | KM12 > 100 µM | OVCAR-5 > 100 µM | HCC 2998 > 100 µM | OVCAR-3 > 100 µM | U-251 > 100 µM | SF-295 > 100 µM | DLD-1 > 100 µM | SW-620 > 100 µM | M14 > 100 µM | SNB-75 > 100 µM | NCI-H226 > 100 µM

CCCCOC(=O)C1C2CCC(O2)C1C(=O)OCCCC (stereo not given)
inactive: A549 > 45.4 µM | NCI-H23 > 100 µM | KM12 > 100 µM | OVCAR-5 > 89.9 µM | HCC 2998 > 62.7 µM | OVCAR-3 > 100 µM | UACC-62 > 100 µM | RPMI-8226 > 49.9 µM | U-251 > 65.6 µM | SK-OV-3 > 100 µM | K562 > 100 µM | SF-295 > 100 µM | DLD-1 > 53.7 µM | M14 > 52.1 µM | SNB-75 > 100 µM | NCI-H226 > 100 µM

O=C1Nc2ccc([N+](=O)[O-])cc2/C1=N/Nc1ccc([N+](=O)[O-])cc1
inactive: A549 14.4 µM | NCI-H23 20.3 µM | KM12 12.4 µM | OVCAR-3 20.1 µM | UACC-62 14.6 µM | RPMI-8226 5.09 µM | U-251 19.8 µM | SK-OV-3 22.2 µM | K562 26.9 µM | SF-295 11.8 µM | DLD-1 17.8 µM | SW-620 12.5 µM | M14 15.8 µM | SNB-75 40.9 µM | NCI-H226 2.72 µM

N#CC(=S)Nc1ccc(Cl)c(Cl)c1
inactive: A549 24 µM | NCI-H23 31.9 µM | KM12 26.9 µM | DU-145 45.6 µM | OVCAR-5 16.4 µM | BT-549 27 µM | HCC 2998 18.7 µM | OVCAR-3 20.5 µM | UACC-62 19 µM | RPMI-8226 3.2 µM | T47D 27.1 µM | U-251 23.2 µM | SK-OV-3 20 µM | K562 11.7 µM | SF-295 22.5 µM | SW-620 27 µM | M14 24.6 µM | SNB-75 21.7 µM | NCI-H226 22.4 µM

COC1OC(CO)C(O)C(OC(C)=O)C1NC(=O)N(CCCl)N=O (stereo not given)
inactive: A549 > 100 µM | NCI-H23 > 100 µM | KM12 > 100 µM | OVCAR-5 > 100 µM | HCC 2998 > 100 µM | OVCAR-3 > 100 µM | UACC-62 24.8 µM | SK-OV-3 > 100 µM | K562 > 100 µM | SF-295 42.7 µM | DLD-1 > 100 µM | SW-620 > 100 µM | M14 > 100 µM | SNB-75 46 µM | NCI-H226 > 100 µM

Reference: ChEMBL document CHEMBL1201862, “PubChem BioAssay data set” (2004)
